Data on eight compounds can be found in patent publication US9850216B2 (H. LEE MOFFITT CANCER CENTER AND RESEARCH INSTITUTE, INC., priority 2013, dated 2017).

Several values for one entry are separate records, joined by “and”; a condition that tells them apart may be missing. Identical values can stand only once. Like-named read-outs stand apart in the source and are kept apart here.

Series [1] deals with T1, ACK1 (Homo sapiens, UniProt Q07912). Put plainly: EGF-induced ACK1 autophosphorylation (Tyr284) in LAPC4 cells, immunoblotting. The format is cell-based. More on the design: endogenous in cells; host or cells: LAPC4. As to conditions: pretreated with compound, 5 μM (FIG. 8(a)). The method, then:
Inhibition of: LNCaP (FIG. 8(b)); LAPC4 (FIG. 8(c)), and VCaP (FIG. 8(d)) cell growth by AIM-100, (R)-9b, and (S)-9b. Inhibition of ACK1 autophosphorylation in LAPC4 cells treated 5 μM with (R)-9b and (S)-9b (FIG. 8(a)).
ACK1 is a tyrosine kinase that auto-phosphorylates at Tyr284, which is indicative of its kinase activation. To determine inhibitory potential of the compounds from library 9, prostate cancer derived cell line LAPC4 was treated with either EGF ligand alone or added to cells pretreated with the compounds, and equal amounts of cell lysates were subjected to immunoblotting. EGF (epidermal growth factor) ligand causes rapid activation of EGFR (epidermal growth factor receptor), which in turn lead to activation of the ACK1 kinase (FIG. 8(a), lane 2, top panel). […] Actin was used as control, which indicates equal loading of cell lysates (FIG. 8(a), lower panel).
On the technique in general: A western blot detects proteins with antibodies after separation by electrophoresis.

Series [2] deals with pY88-H4. Put plainly: Endogenous H4 Y88-phosphorylation in LNCaP cells. The format is cell-based, human. Particulars: 16 hrs (FIG. 5b). How it is done:
In FIG. 5(a), equimolar amounts of purified ACK1 and H4 proteins were incubated in the presence of DZ1-067 (100 nM) and reaction subjected to immunoblotting with pY88-H4 antibodies. […] The nuclear lysates were immunoprecipitated with pY88-H4 antibodies followed by immunoblotting with H4. Lower panel is input lysate.

Series [3] relates to AR. Put plainly: AR mRNA by real time PCR in androgen-deprived prostate cancer cells. The format is cell-based, human. Particulars: overnight treatment (FIG. 3a, b). From the text: Total RNA was isolated followed by qPCR with AR primers. VCaP, *p=0.022; LNCaP, *p=0.042, **p=0.047. […] Total RNA was isolated followed by qPCR with PSA primers.
Background: Real-time PCR tracks product formation cycle by cycle.

Series [4] concerns PSA. Put plainly: PSA mRNA by real time PCR in androgen-deprived prostate cancer cells. The format is cell-based, human. As to conditions: overnight treatment (FIG. 3c, d). From the text: Total RNA was isolated followed by qPCR with AR primers. […] Total RNA was isolated followed by qPCR with PSA primers.
For series [5] the following is noted: metastatic CRPC; literature; cited from earlier work.
Series [6] deals with prostate xenograft tumor. As to conditions: literature; cited from earlier work.
Series [7] concerns LNCaP cells. Description: Cell proliferation, trypan blue exclusion, LNCaP. The class given is cell-based, human. As to conditions: 36 hrs, viable cells by trypan blue exclusion, read-out: IC50, inhibition of cell growth in LNCaP cells. The method, then:
(§1) The number of viable cells was counted by trypan blue exclusion assay.
(§2) Three distinct human prostate cancer derived cell lines, LNCaP, LAPC4 and VCaP were either DMSO treated or treated with 1, 2.5, 5, 7.5 and 10 μM of inhibitors, AIM-100, (R)-9b and (S)-9b for 36 hrs and the number of viable cells were counted by trypan blue exclusion assay.
(§3) The ability of the ACK1 inhibitors to suppress proliferation of prostate cancer cell lines were also assessed. AIM-100, an ACK1 inhibitor, originally screened by Amgen was used as a control. […] Overall, it appears that ACK1 is needed for androgen-independent growth of prostate cancer cells.

Series [8] relates to VCaP cells. Description: Cell proliferation, trypan blue exclusion, VCaP. The format is cell-based, human. As to conditions: 36 hrs, viable cells by trypan blue exclusion, read-out: IC50, inhibition of cell growth in VCaP cells. The method, then:
as §1, §2, §3

Series [9] has as its system AR. Description: AR protein levels in androgen-deprived prostate cancer cells, immunoblotting. Particulars: immunoblotting (FIG. 2). The format is cell-based, human. How it is done: Transcriptional regulation of the AR gene itself is a paradigm that merits thorough investigation. […] Whether AR utilizes ACK1 to facilitate its transcriptional co-activator function is not known. […] Cells were also treated with ACK1-specific small molecule inhibitors, DZ1-067 or AIM-100.

For series [10], the target named is ALK (Homo sapiens, UniProt Q9UM73). Put plainly: Kinase IC50 profiling, ALK. The class given is biochemical. Particulars: Table 4; 10-dose; 10 μM ATP; read-out: Compound IC50 (M), ALK. The method, then:
(§4) 8 compounds were tested against […], ACK1, Src and ALK in various combinations. […] Reactions were carried out at 10 μM ATP.

For series [11], the target named is T1, ACK1. Put plainly: ACK1 ELISA: phosphorylation of AKT-derived peptide. The format is biochemical. Particulars: 10 μM, Table 1, replicate values listed. (ELISA stands for enzyme-linked immunosorbent assay.)
The target of series [12] is T1, ACK1. Put plainly: 32P Hotspot assay (Reaction Biology), ACK1 IC50. The format is biochemical. The method, then:
as §4

Series [13] has as its target T1, ACK1. Particulars: literature; read-out: IC50, inhibition of ACK1 autophosphorylation in intact cells; cited from earlier work.
Series [14] relates to cell line which is dependent upon ACK1. Particulars: literature; read-out: IC50, growth of a cell line dependent upon ACK1; cited from earlier work.
The conditions of series [15]: attributed to oxidation of dithiolane ring and NMe2; literature; cited from earlier work.

T1 sequence (Q07912 whole entry): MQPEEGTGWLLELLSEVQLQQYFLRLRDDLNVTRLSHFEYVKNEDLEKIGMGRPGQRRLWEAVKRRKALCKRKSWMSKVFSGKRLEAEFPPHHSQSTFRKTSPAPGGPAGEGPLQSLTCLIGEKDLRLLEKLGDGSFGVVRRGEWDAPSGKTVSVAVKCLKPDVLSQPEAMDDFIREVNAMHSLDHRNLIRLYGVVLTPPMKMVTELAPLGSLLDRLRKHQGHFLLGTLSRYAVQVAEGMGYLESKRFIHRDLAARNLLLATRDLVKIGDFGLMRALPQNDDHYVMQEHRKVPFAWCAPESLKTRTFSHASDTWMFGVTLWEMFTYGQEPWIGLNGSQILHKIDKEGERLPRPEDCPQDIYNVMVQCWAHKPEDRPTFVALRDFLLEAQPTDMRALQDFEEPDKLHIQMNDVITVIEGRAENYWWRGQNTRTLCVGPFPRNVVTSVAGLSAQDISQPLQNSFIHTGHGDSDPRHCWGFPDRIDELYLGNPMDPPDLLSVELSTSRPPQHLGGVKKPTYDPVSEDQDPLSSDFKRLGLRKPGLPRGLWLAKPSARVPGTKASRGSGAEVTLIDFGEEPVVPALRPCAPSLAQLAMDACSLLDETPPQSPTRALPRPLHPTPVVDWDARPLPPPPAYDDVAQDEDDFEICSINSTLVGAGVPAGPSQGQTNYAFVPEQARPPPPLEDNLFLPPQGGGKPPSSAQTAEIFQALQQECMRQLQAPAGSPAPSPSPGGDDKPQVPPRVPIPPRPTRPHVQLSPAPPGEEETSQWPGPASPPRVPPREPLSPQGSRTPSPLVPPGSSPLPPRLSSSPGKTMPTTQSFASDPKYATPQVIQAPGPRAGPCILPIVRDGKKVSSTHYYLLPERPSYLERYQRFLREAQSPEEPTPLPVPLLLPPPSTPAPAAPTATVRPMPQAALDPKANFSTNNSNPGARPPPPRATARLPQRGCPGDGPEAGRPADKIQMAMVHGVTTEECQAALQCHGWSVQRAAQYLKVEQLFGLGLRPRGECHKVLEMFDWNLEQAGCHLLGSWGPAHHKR
ALK, sequence (Q9UM73 19-1620): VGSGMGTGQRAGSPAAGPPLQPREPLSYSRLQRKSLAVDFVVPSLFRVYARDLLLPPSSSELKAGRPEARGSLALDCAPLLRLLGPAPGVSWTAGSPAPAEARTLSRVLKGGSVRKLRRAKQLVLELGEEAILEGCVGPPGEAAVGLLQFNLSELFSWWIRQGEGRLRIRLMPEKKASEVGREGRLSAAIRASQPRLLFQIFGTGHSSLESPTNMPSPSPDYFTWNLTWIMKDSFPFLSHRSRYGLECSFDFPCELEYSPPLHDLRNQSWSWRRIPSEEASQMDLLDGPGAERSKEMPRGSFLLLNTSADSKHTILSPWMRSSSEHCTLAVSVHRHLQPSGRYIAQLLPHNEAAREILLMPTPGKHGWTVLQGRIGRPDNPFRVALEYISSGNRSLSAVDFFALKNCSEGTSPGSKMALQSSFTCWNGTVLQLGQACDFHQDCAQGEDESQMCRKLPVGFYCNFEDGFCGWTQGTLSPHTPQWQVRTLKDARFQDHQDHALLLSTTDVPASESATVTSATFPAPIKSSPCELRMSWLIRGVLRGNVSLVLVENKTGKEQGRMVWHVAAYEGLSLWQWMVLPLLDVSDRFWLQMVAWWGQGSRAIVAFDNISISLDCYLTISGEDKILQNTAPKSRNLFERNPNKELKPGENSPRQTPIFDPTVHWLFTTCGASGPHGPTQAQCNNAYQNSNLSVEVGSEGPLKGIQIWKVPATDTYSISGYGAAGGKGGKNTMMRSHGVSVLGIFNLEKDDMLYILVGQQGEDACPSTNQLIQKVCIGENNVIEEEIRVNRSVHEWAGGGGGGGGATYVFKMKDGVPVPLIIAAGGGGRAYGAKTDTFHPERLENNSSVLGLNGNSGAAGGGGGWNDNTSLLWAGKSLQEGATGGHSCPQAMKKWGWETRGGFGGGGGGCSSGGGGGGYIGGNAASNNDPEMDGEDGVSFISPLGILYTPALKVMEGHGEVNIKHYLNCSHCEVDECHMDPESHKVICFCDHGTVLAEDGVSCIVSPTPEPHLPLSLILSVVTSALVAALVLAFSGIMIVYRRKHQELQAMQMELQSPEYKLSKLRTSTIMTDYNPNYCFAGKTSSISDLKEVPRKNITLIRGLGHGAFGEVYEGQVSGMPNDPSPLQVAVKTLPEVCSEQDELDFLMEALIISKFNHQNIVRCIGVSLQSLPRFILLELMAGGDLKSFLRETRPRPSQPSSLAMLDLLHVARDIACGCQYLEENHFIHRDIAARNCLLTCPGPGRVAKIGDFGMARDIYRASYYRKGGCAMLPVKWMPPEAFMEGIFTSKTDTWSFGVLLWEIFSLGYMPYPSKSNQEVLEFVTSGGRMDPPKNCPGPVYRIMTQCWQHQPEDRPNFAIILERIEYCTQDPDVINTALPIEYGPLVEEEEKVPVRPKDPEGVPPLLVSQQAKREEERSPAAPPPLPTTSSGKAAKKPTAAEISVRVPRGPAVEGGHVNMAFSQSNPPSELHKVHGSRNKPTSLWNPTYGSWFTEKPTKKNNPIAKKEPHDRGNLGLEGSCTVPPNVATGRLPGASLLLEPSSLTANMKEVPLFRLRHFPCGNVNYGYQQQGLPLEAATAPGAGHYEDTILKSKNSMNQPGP

As for `COc1cc(N2CCC(N3CCN(C)CC3)CC2)ccc1Nc1ncc(Cl)c(Nc2ccccc2S(=O)(=O)C(C)C)n1` [TAE684], the “ACK1 activation (autophosphorylation) in EGF-treated LAPC4 cells” value in series [1] was “significant reduction in ACK1 activation”.
On to `CNC(=O)c1ccc(N2C(=S)N(c3ccc(C#N)c(C(F)(F)F)c3)C(=O)C2(C)C)cc1F` [Enzalutamide], for which the “endogenous pY88-phosphorylation of H4 in LNCaP cells” value in series [2] is “unaffected”. The “AR mRNA levels” value in series [3] is listed as “no significant change”. Besides, in [4], the “PSA mRNA levels” value is “significantly suppressed PSA mRNA levels”. For the same compound, in series [5], the “CRPC patients in whom effective” value is reported as 12 out of 30 and the overall survival advantage was 4-6 months.
In general, IC50 refers to the midpoint of a concentration-inhibition curve. As to `c1ccc(-c2oc3ncnc(NC[C@@H]4CCCO4)c3c2-c2ccccc2)cc1` [AIM-100], the “castration and radioresistant prostate xenograft tumor growth” value in series [6] is given as “inhibits”. In series [1], the “ACK1 activation (autophosphorylation) in EGF-treated LAPC4 cells” value is given as “significant reduction in ACK1 activation”. For the same compound, the half-maximal inhibitory concentration (IC50) in series [7] came out at 7000 nM; in [8], 4000 nM. The AR protein levels result in series [9] was “concomitant decrease in AR protein levels”.
The % Inhibition is how much of the control response was suppressed. A lower % Inhibition goes with a weak effect. For orientation: inhibition means how much of the control response was suppressed. Consider `CN1CCN(c2ccc(Nc3ncc(Cl)c(NC[C@@H]4CCCO4)n3)cc2)CC1` [DZ1-077, (S)-5-chloro-N2-(4-(4-methylpiperazin-1-yl)phenyl)-N4-((tetrahydrofuran-2-yl)methyl)pyrimidine-2,4-diamine], for which the IC50 in series [10] is 2.96e-07 M; in [7] (Homo sapiens, LNCaP), 1800 nM; in [8] (Homo sapiens, VCaP), 4000 nM; in series [12] (Table 1, unit inferred, (RB) = Reaction Biology, replicates listed, read-out: IC50), 8.05e-08 M and 8.33e-08 M; in [12] (Table 4, 10-dose, 10 μM ATP, read-out: Compound IC50 (M), ACK1), 8.33e-08 M. Further, the “% Inhibition at 10 μM (ELISA)” value in series [11] was 94%. For the same compound, in [11] (read-out: % Inhibition at 10 μM (ELISA)), the inhibition at 10 µM came out at 93%.
For `COC(C)(C)CCn1nc(Nc2c(C)cccc2C)c2cnc(Nc3ccccc3)nc21` [Compound 2], in [13], the IC50 was 20 nM.
Regarding `CN(C)CCOc1ccc(-c2oc3ncnc(NCC4SCCS4)c3c2-c2ccccc2)cc1` [Compound 1c], the IC50 in series [14] was 5 nM. Besides, the pharmacokinetic properties entry in [15] was “poor pharmacokinetic properties”.
In the case of `C[C@]12CCC(=O)C[C@@H]1CC[C@@H]1[C@@H]2CC[C@]2(C)[C@@H](O)CC[C@@H]12` [DHT], the “endogenous pY88-phosphorylation of H4 in LNCaP cells” value in series [2] was “unaffected”. Also, in [3], the “AR mRNA levels” value is “no significant change”. For the same compound, the AR protein levels result in [9] is “increased AR levels”.
With `CC(O)(CS(=O)(=O)c1ccc(F)cc1)C(=O)Nc1ccc(C#N)c(C(F)(F)F)c1` (centres unmarked) [Casodex], the “AR mRNA levels” value in series [3] was “no significant change”. In [4], the “PSA mRNA levels” value is on record as “significantly suppressed PSA mRNA levels”.
